According to patent EP0256125A1, “MEANS FOR PREVENTING MICROBIOLOGICAL OVERGROWING OF HARD SURFACE” (priority 1985, dated 1987):

Tests used:
Acremonium charticola = experiment: Fungicidal activity, inhibition of mycelium growth on wort agar; type: cell-based; conditions: Acremonium charticola, 120 h, read-out: Hemmung des Myzeliums am 5. Tag des Wachstums, Acremonium charticola
Acremonium corvum = experiment: as above; type: cell-based; conditions: 120 h, read-out: Hemmung des Myzeliums am 5. Tag des Wachstums, Acremonium corvum
[1] = test system: Cladosporium cladosporioides; experiment: as above; type: cell-based; conditions: Cladosporium cladosporioides, 120 h, read-out: Hemmung des Myzeliums am 5. Tag des Wachstums, Cladosporium cladosporioides
Cladosporium resinae = experiment: as above; type: cell-based; conditions: Amorphotheca resinae, 120 h, read-out: Hemmung des Myzeliums am 5. Tag des Wachstums, Cladosporium resinae
Geotrichum candidum Link = experiment: as above; type: cell-based
Oidium = experiment: as above; type: cell-based
[2] = test system: Penicillium charlesii Smith; experiment: as above; type: cell-based; conditions: Penicillium charlesii, 120 h, read-out: Hemmung des Myzeliums am 5. Tag des Wachstums, Penicillium charlesii Smith
Penicillium chrysogenum = experiment: as above; type: cell-based
Walrotiela subiculesa = experiment: as above; type: cell-based; conditions: 120 h, read-out: Hemmung des Myzeliums am 5. Tag des Wachstums, Walrotiela subiculesa
p. Escherichiae = experiment: Bactericidal activity, growth on agar medium; type: cell-based; conditions: 37°C, 5 Tage
p.Bacillus = experiment: Bactericidal activity, growth on agar medium; type: cell-based; conditions: 37°C, 5 Tage
p.Micrococcus = experiment: Bactericidal activity, growth on agar medium; type: cell-based; conditions: 37°C, 5 Tage
p.Pseudomonas = experiment: Bactericidal activity, growth on agar medium; type: cell-based; conditions: 37°C, 5 Tage
Bakterien = experiment: Bactericidal activity, summary over all tested bacteria; type: cell-based
Procedure: Die bakterizide Aktivität des Kalium N-(vinyloxyethyl)-dithiocarbamats gegenüber den Bakterien, die von der Oberfläche von Wänden und Decken der Produktionsräume von Brauereien und Fabriken zur Herstellunq von alkoholfreien Getränken ausgeschieden wurden und die zu p.p.Bacillus, Micrococcus, Pseudomonas, Escherichiae gehören, wurde geprüft.
Es wurden wäßrige Lösungen des genannten Stoffes verschiedener Konzentration hergestellt, die so berechnet wurde, daß bei Einführung von 1 ml der Lösung in 25 ml geschmolzenen agarisierten Nährboden (45-50°C) die Konzentration des Stoffes im Nährboden von 0,003 bis 0,5% betrug. In 18 bis 24 Stunden wurde auf die Oberfläche des Nährbodens 0,1 ml der wäßrigen Suspension der eintägigen reinen Bakterienkulturen aufgetragen, die am Fleisch-Pepton-Agar gezüchtet wurden. Die Suspension wurde gleichmäßig verteilt. In Kontrollschalen wurden 0,1 ml Wasser auf der Oberfläche des Närhbodens verteilt.
Die Inkubation führte man bei einer Temperatur von 37°C während 5 Tage durch.
Die effektive Wirkung des Stoffes wurde nach dem Auftreten des Bakterienwachstums an der Oberfläche des Nährbodens bewertet.

[3] = Storage stability (qualitative); type: physicochemical; conditions: result in words
[4] = Acute toxicity in white mice; conditions: mouse, in vivo, po
[5] = Solubility in solvents (qualitative)
[6] = Konzentration des Stoffes 0,00075 %
[7] = Konzentration des Stoffes 0,0015 %
[8] = Konzentration des Stoffes 0,003 %
[9] = Konzentration des Stoffes 0,006 %
[10] = Konzentration des Stoffes 0,012 %

C=COCCNC(=S)[S-].[K+] [Kalium-N-(vinyloxyethyl)dithiocarbamat]
inhibition of growth (Acremonium charticola; [6]): 90% | inhibition of growth at 0.0015 % (Acremonium charticola; [7]): 100% | inhibition of growth at 0.003 % (Acremonium charticola; [8]): 100% | inhibition of growth at 0.006 % (Acremonium charticola; [9]): 100% | inhibition of growth at 0.012 % (Acremonium charticola; [10]): 100% | inhibition of growth (Acremonium corvum; [6]): 94% | inhibition of growth at 0.0015 % (Acremonium corvum; [7]): 100% | inhibition of growth at 0.003 % (Acremonium corvum; [8]): 100% | inhibition of growth at 0.006 % (Acremonium corvum; [9]): 100% | inhibition of growth at 0.012 % (Acremonium corvum; [10]): 100% | inhibition of growth [1, 6]: 100% | inhibition of growth at 0.0015 % [1, 7]: 100% | inhibition of growth at 0.003 % [1, 8]: 100% | inhibition of growth at 0.006 % [1, 9]: 100% | inhibition of growth at 0.012 % [1, 10]: 100% | inhibition of growth (Cladosporium resinae; [6]): 70% | inhibition of growth at 0.0015 % (Cladosporium resinae; [7]): 100% | inhibition of growth at 0.003 % (Cladosporium resinae; [8]): 100% | inhibition of growth at 0.006 % (Cladosporium resinae; [9]): 100% | inhibition of growth at 0.012 % (Cladosporium resinae; [10]): 100% | inhibition of growth at 0.00075 % (Geotrichum candidum Link; Geotrichum candidum, 120 h, Konzentration des Stoffes 0,00075 %, read-out: Hemmung des Myzeliums am 5. Tag des Wachstums, Geotrichum candidum Link): 10% | inhibition of growth at 0.012 % (Geotrichum candidum Link; Geotrichum candidum, 120 h, Konzentration des Stoffes 0,012 %, read-out: Hemmung des Myzeliums am 5. Tag des Wachstums, Geotrichum candidum Link): 100% | Hemmung des Myzeliums am 5. Tag des Wachstums, Geotrichum candidum Link (Geotrichum candidum Link; [7]): 40% | Hemmung des Myzeliums am 5. Tag des Wachstums, Geotrichum candidum Link (Geotrichum candidum Link; [8]): 100% | Hemmung des Myzeliums am 5. Tag des Wachstums, Geotrichum candidum Link (Geotrichum candidum Link; [9]): 100% | inhibition of growth at 0.00075 % (Oidium; 120 h, Konzentration des Stoffes 0,00075 %, read-out: Hemmung des Myzeliums am 5. Tag des Wachstums, Oidium): 40% | inhibition of growth at 0.003 % (Oidium; 120 h, Konzentration des Stoffes 0,003 %, read-out: Hemmung des Myzeliums am 5. Tag des Wachstums, Oidium): 100% | inhibition of growth at 0.006 % (Oidium; 120 h, Konzentration des Stoffes 0,006 %, read-out: Hemmung des Myzeliums am 5. Tag des Wachstums, Oidium): 100% | inhibition of growth at 0.012 % (Oidium; 120 h, Konzentration des Stoffes 0,012 %, read-out: Hemmung des Myzeliums am 5. Tag des Wachstums, Oidium): 100% | Hemmung des Myzeliums am 5. Tag des Wachstums, Oidium (Oidium; [7]): 96% | inhibition of growth [2, 6]: 5% | inhibition of growth at 0.0015 % [2, 7]: 30% | inhibition of growth at 0.003 % [2, 8]: 55% | inhibition of growth at 0.006 % [2, 9]: 90% | inhibition of growth at 0.012 % [2, 10]: 100% | Hemmung des Myzeliums am 5. Tag des Wachstums, Penicillium chrysogenum (Penicillium chrysogenum; [7]): 30% | Hemmung des Myzeliums am 5. Tag des Wachstums, Penicillium chrysogenum (Penicillium chrysogenum; [8]): 55% | inhibition of growth at 0.00075 % (Penicillium chrysogenum; Penicillium chrysogenum, 120 h, Konzentration des Stoffes 0,00075 %, read-out: Hemmung des Myzeliums am 5. Tag des Wachstums, Penicillium chrysogenum): 0% | inhibition of growth at 0.006 % (Penicillium chrysogenum; Penicillium chrysogenum, 120 h, Konzentration des Stoffes 0,006 %, read-out: Hemmung des Myzeliums am 5. Tag des Wachstums, Penicillium chrysogenum): 90% | inhibition of growth at 0.012 % (Penicillium chrysogenum; Penicillium chrysogenum, 120 h, Konzentration des Stoffes 0,012 %, read-out: Hemmung des Myzeliums am 5. Tag des Wachstums, Penicillium chrysogenum): 100% | inhibition of growth at 0.00075 % (Walrotiela subiculesa; [6]): 90% | inhibition of growth at 0.0015 % (Walrotiela subiculesa; [7]): 100% | inhibition of growth at 0.003 % (Walrotiela subiculesa; [8]): 100% | inhibition of growth at 0.006 % (Walrotiela subiculesa; [9]): 100% | inhibition of growth at 0.012 % (Walrotiela subiculesa; [10]): 100% | Konzentration der Salze der N-(vinyloxyethyl)dithiocarbaminsäure (100%), die das Wachstum der Bakterien am 5. Tag des Wachstums hemmen, p. Escherichiae (p. Escherichiae): 0,05% | Konzentration der Salze der N-(vinyloxyethyl)dithiocarbaminsäure (100%), die das Wachstum der Bakterien am 5. Tag des Wachstums hemmen, p.Bacillus (p.Bacillus): 0,05% | Konzentration der Salze der N-(vinyloxyethyl)dithiocarbaminsäure (100%), die das Wachstum der Bakterien am 5. Tag des Wachstums hemmen, p.Micrococcus (p.Micrococcus): 0,05% | Konzentration der Salze der N-(vinyloxyethyl)dithiocarbaminsäure (100%), die das Wachstum der Bakterien am 5. Tag des Wachstums hemmen, p.Pseudomonas (p.Pseudomonas): 0,05% | Konzentration, die das Wachstum der Bakterien vollständig hemmte (Bakterien): 0,05% | Lagerbeständigkeit [3]: lagerbeständig | LD50 [4]: 1400 ± 350 mg/kg | Löslichkeit im Alkohol ([5]; Alkohol (Ethylalkohol)): teilweise | Löslichkeit im Azeton ([5]; Azeton): teilweise | Löslichkeit im Diethylether ([5]; Diethylether): unlöslich | Löslichkeit in Wasser ([5]; Wasser): gut löslich
